Patent publication US8093265B2, “Bicycloheteroaryl compounds as P2X7 modulators and uses thereof” (Renovis, Inc., priority 2007, dated 2012)

Legend:
[1] = Pharmacokinetic evaluation following intravenous and oral administration in rats; format: in vivo, rat; conditions: male Sprague-Dawley rats; PO 1 to 5 mg/kg vs IV 1 mg/kg; AUCinf(PO)/AUCinf(IV) dose-normalized
Description: Pharmacokinetic Evaluation of Compounds Following Intravenous and Oral Administration in Rats.
Male Sprague-Dawley rats are acclimated for at least 24 hours prior to experiment initiation. During the acclimation period, all animals receive food and water ad libitum. However, food but not water is removed from the animals' cages at least 12 hours before initiation of the experiment. During the first 3 hours of experimentation, the animals receive only water ad libitum. At least three animals each are tested for intravenous and oral dosage. For intravenous formulation, compounds are dissolved (0.25 to 1 mg/mL) in a mixture of 3% dimethyl sulfoxide, 40% PEG 400 and the rest percentage of 40% Captisol in water (w/v). The animals are weighed before dosing. The determined body weight is used to calculate the dose volume for each animal. Dose volume (mL/kg)=1 mg/kg/formulation concentration (mg/mL)
In instances where the formulation concentrations are less than 0.5 mg/mL, the dosing volume is about 2 mL/kg.
For oral formulation, compounds of this invention are suspended (0.5 to 0.75 mg/mL) in a mixture of 5% of 10% Tween 80 in water (v/v) and 95% of 0.5% methyl cellulose in water (w/v). PO rats are typically dosed through oral gavage following the same dose volume formula as IV to achieve a dose level of 1 to 5 mg/kg. For IV dosing, blood samples are collected (using a pre-heparinized syringe) via the jugular vein catheter at 2, 5, 15, 30, 60, 120, 180, 300, 480, and 1440 minutes post dosing. For PO dosing blood samples are collected (using a pre-heparinized syringe) via the jugular vein catheter before dosing and at 5, 15, 30, 60, 120, 180, 300, 480, and 1440 minutes post dosing. About 250 uL of blood is obtained at each time point from the animal. Equal volumes of 0.9% normal saline are replaced to prevent dehydration. The whole blood samples are maintained on ice until centrifugation. Blood samples are then centrifuged at 14,000 rpm for 10 minutes at 4° C., and the upper plasma layer is then transferred into a clean vial and stored at −80° C. The resulting plasma samples are then analyzed by liquid chromatography-tandem mass spectrometry. Following the measurement of plasma samples and dosing solutions, plasma concentration-time curve is plotted. Plasma exposure is calculated as the area under the concentration-time curve extrapolated to time infinite (AUCinf). The AUCinf is averaged and the oral bioavailability (% F) for individual animal is calculated as: • AUCinf(PO)/AUCinf(IV), normalized to their respective dose levels.
The % F can be reported as the mean % F of all animals dosed orally with the compound of the invention at the specified level.
For the purpose of Table 3, the oral bioavailability of each compound is expressed as follows: […]

[2] = Plasma protein binding by equilibrium dialysis, human plasma; format: in vitro ADME; conditions: pH 7.4, equilibrium dialysis 16 hr at 37° C., % Bound
Description: The plasma protein binding of compounds of invention is measured in human and rat plasma, respectively. A stock solution of the tested compound is prepared in 1 mg/mL in DMSO solution. The stock solution is spiked into the blank plasma to get a final compound concentration at 1 μg/mL for testing. Equilibrium dialysis (The equilibrium dialyzer-96TM MWCO 5K Daltons, Harvard Apparatus) method is used for the testing purpose.
The compound spiked plasma (at […]) and phosphate buffer (0.1 M, pH 7.4), 200 μl each, are added into the opposite sides of the membrane in a 96-well equilibrium dialyzer, respectively. The dialyzer plate is covered and incubated overnight (16 hr) at 37° C. in the 8-plate rotor incubator (Big Shot III 8-plate rotor, Harvard Apparatus). Aliquots (100 μL) are taken from the plasma and the buffer compartments, respectively. The matrix effects are eliminated by adding the same volume of blank plasma into the samples from buffer compartments and adding the same volume of phosphate buffer into the samples from plasma compartments. The samples are extracted by using the regular (3:1) protein precipitation extraction procedure (acetonitrile with internal standard). The supernatants are taken for LC/MS/MS analysis. The percentage of plasma-protein binding can be calculated by using the following method: % Free=[Free Drug/Total Drug]*100=[(Peak Area)buffer/(Peak Area)plasma]*100 % Bound=100−% Free.
For the purpose of Table 4, the plasma protein binding of each compound is expressed as follows: […]

[3] = target: T1, P2X7 receptor (Homo sapiens, UniProt Q99572); experiment: IL-1β release assay in differentiated THP-1 cells (Example 9); format: cell-based; conditions: THP-1 cells differentiated with LPS and IFN-γ; 30 min pretreatment; BzATP 250 uM; IL-1β by ELISA
T1 construct: host or cells: THP-1 cells differentiated with LPS and IFN-γ
T1 sequence (Q99572 1-595): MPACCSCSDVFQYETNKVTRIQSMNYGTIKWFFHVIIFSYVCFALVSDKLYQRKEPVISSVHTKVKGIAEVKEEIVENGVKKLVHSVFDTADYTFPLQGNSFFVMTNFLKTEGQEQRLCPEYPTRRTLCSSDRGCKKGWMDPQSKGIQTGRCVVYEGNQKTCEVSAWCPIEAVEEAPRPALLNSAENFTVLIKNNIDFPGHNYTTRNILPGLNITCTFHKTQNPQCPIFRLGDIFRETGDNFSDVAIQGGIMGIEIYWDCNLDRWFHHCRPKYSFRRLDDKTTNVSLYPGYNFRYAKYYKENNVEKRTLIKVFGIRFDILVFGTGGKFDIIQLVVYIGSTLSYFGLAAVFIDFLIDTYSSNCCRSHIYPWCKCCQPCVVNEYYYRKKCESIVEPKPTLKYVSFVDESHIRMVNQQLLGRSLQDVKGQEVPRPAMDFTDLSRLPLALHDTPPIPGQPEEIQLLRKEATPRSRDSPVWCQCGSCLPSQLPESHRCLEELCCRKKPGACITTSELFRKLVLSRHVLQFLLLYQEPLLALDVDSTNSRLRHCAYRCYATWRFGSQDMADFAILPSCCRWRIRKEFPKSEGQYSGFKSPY
How it was run: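 THP-1 cells differentiated 16 h with LPS and IFN-γ (100 ng/mL each), re-primed 2 h with LPS, then pretreated 30 min with compound before 250 uM BzATP for 45 min. Supernatant IL-1β measured by ELISA; background-adjusted % inhibition fitted to a four-parameter logistic for IC50.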

[4] = Half-life in human liver microsomes (HLM); format: in vitro ADME; conditions: human liver microsomes 0.78 mg/mL, 1 μM compound, NADPH, 37° C.; for half-life at 1 μM: pH 7.4
Description: Half-Life in Human Liver Microsomes (HLM)
Test compounds (1 μM) are incubated with 3.3 mM MgCl2 and 0.78 mg/mL HLM (HL101) in 100 mM potassium phosphate buffer (pH 7.4) at 37° C. on the 96-deep well plate. The reaction mixture is split into two groups, a non-P450 and a P450 group. NADPH is only added to the reaction mixture of the P450 group. An aliquot of samples of P450 group is collected at 0, 10, 30, and 60 min time point, where 0 min time point indicated the time when NADPH is added into the reaction mixture of P450 group. […] Collected aliquots are extracted with acetonitrile solution containing an internal standard. […] The compound concentration in supernatant is measured by LC/MS/MS system.
The half-life value is obtained by plotting the natural logarithm of the peak area ratio of compounds/internal standard versus time. The slope of the line of best fit through the points yields the rate of metabolism (k). This is converted to a half-life value using following equations: Half-life=ln 2/k

Structure (SMILES)	Oral Bioavailability F (%) [1]	fraction unbound at 16 hr, 1 μg/mL [2]	IC50 [3] [nM]	Half Life [4] [h]	half-life at 1 μM [4] [h]
C[C@H](CO)n1ccc2c(NC(=O)Cc3ccc(C(F)(F)F)cc3)c(Cl)ccc2c1=O [Compound 10, N-[6-Chloro-2-((R)-2-hydroxy-1-methyl-ethyl)-1-oxo-1,2-dihydro-isoquinolin-5-yl]-2-(4-trifluoromethyl-phenyl)-acetamide]	++++ (>75% F)	< 0.1	10	3.2	
Cc1ccc2c(=O)n([C@H](C)C(N)=O)ccc2c1NC(=O)Cc1ccc(C(F)(F)F)c(F)c1 [Compound 51, (R)-2-{5-[2-(3-Fluoro-4-trifluoromethyl-phenyl)-acetylamino]-6-methyl-1-oxo-1H-isoquinolin-2-yl}-propionamide]	+ (0-25% F)		0.4		1.3
O=C(Cc1ccc(F)c(C(F)(F)F)c1)Nc1c(Cl)ccc2c(=O)n(CCO)ccc12 [Compound 19, N-[6-Chloro-2-(2-hydroxy-ethyl)-1-oxo-1,2-dihydro-isoquinolin-5-yl]-2-(4-fluoro-3-trifluoromethyl-phenyl)-acetamide]	+ (0-25% F)	< 0.1	5	1.1	
Cc1ccc2c(=O)n([C@H](C)CO)ccc2c1C(=O)NCC1CCCCCC1 [Compound 49, 2-((R)-2-Hydroxy-1-methyl-ethyl)-6-methyl-1-oxo-1,2-dihydro-isoquinoline-5-carboxylic acid cycloheptylmethyl-amide]	+ (0-25% F)		0.7		0.3
C[C@H](C(N)=O)n1ccc2c(NC(=O)Cc3cccc(C(F)(F)F)c3F)c(Cl)ccc2c1=O [Compound 5, (R)-2-{6-Chloro-5-[2-(2-fluoro-3-trifluoromethyl-phenyl)-acetylamino]-1-oxo-1H-isoquinolin-2-yl}-propionamide]	+ (0-25% F)		7	1.2	
C[C@H](CO)n1ccc2c(NC(=O)Cc3ccc(C(F)(F)F)c(F)c3)c(Cl)ccc2c1=O [Compound 11, N-[6-Chloro-2-((R)-2-hydroxy-1-methyl-ethyl)-1-oxo-1,2-dihydro-isoquinolin-5-yl]-2-(3-fluoro-4-trifluoromethyl-phenyl)-acetamide]	++++ (>75% F)	< 0.1	5	1.6	
Cc1ccc2c(=O)n([C@H](C)CO)ccc2c1NC(=O)Cc1ccc(Cl)c(F)c1 [Compound 26, 2-(4-Chloro-3-fluoro-phenyl)-N-[2-((R)-2-hydroxy-1-methyl-ethyl)-6-methyl-1-oxo-1,2-dihydro-isoquinolin-5-yl]-acetamide]	+++ (51-75% F)	0.1 to 0.24	5		1.6
O=C(Cc1ccc(C(F)(F)F)c(F)c1)Nc1c(Cl)ccc2c(=O)n(CCO)ccc12 [Compound 16, N-[6-Chloro-2-(2-hydroxy-ethyl)-1-oxo-1,2-dihydro-isoquinolin-5-yl]-2-(3-fluoro-4-trifluoromethyl-phenyl)-acetamide]	++++ (>75% F)	< 0.1	6	3.7	
C[C@H](C(N)=O)n1ccc2c(NC(=O)CC34CC5CC(CC(C5)C3)C4)c(Cl)ccc2c1=O [Compound 2]	+ (0-25% F)		0.1		0.8
